Reference: PubChem BioAssay AID463203 (Broad Institute, 2010)
Activity calls are given as the source filed them.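 How the source made its calls: active means more than half of replicate measurements showing over 20% loss of kinase signal relative to plate controls; inconclusive means some but at most half of replicates over 20% loss; inactive means no replicate over 20% signal loss.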

Biological target: Glycogen synthase kinase-3 alpha (Homo sapiens) (UniProt P49840)
Assay: concentration-response blocking of human GSK3A – biochemical, luminescence, cell-free homogeneous, retest, dose response (AID 463203)
Conditions: GSK-3 alpha enzyme, ADP-Glo luminescence, 60 min

Sequence of Glycogen synthase kinase-3 alpha (Homo sapiens) (P49840 whole entry, looked up): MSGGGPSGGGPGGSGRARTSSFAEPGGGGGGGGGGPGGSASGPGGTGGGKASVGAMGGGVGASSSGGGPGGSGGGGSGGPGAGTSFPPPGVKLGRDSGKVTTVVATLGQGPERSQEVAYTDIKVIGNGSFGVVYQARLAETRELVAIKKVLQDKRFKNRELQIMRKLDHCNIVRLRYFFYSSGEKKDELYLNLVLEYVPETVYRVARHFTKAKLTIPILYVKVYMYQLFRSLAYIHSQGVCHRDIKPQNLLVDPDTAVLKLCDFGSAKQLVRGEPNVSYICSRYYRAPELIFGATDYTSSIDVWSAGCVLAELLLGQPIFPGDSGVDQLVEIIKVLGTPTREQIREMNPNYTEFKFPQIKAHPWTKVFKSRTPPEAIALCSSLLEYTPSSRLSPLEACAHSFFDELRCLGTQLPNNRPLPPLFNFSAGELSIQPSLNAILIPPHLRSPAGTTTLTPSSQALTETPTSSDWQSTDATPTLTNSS

| SMILES | AC50 |
| --- | --- |
| O=C(NC1CCCC1)c1ccc(Cn2c(=O)[nH]c3ccsc3c2=O)cc1 | > 30 µM (inactive) |
| CC(=O)Oc1ccc2ccc(=O)oc2c1 | > 30 µM (inactive) |
| COc1cccc(/C=N/Nc2ccc([N+](=O)[O-])cn2)c1O | > 30 µM (inactive) |
| Nc1c(O)ccc2c1C(=O)c1ccccc1C2=O | 18.7 µM |
| CCCCn1c(O)c(C(CC)=NCCCn2ccnc2)c(=O)[nH]c1=O | 13.9 µM |
| Cc1ccc(C(=O)Nc2nnc(C)s2)cc1 | > 30 µM (inactive) |
| O=C1CC(c2cccs2)CC2=C1C(c1ccccc1)n1ncnc1N2 (stereo not given) | > 30 µM (inactive) |
| CCCCN(CC)C(=O)c1oc2ccc(S(=O)(=O)N3CCCC3)cc2c1C | > 30 µM (inactive) |
| CC(C)(C)OC(=O)N1CCC(NC(=O)c2nc[nH]c2C(=O)NC2CCN(C(=O)OC(C)(C)C)CC2)CC1 | > 30 µM (inactive) |
| COc1cc(C2CC(=O)N3CN(Cc4ccccc4)CSC3=C2C#N)ccc1OCc1ccccc1 (stereo not given) | > 30 µM (inactive) |
| CN(C)/C=C/c1[nH]c(=O)[nH]c(=O)c1[N+](=O)[O-] | > 30 µM (inactive) |
| C=CCc1cc(/C=N/n2cnnc2)cc(OCC)c1O | > 30 µM (inactive) |
| Brc1cccc(CSc2nnc(-c3ccncc3)o2)c1 | 7.58 µM |
| Cc1cccc(NC(=O)COC(=O)c2ccccn2)c1 | > 30 µM (inactive) |
| Cc1ccc2c(c1)Oc1ccc(NC(=O)CCl)cc1C(=O)N2 | > 30 µM (inactive) |
| Cc1occc1C(=O)N/N=C/c1ccc(N(C)C)cc1 | 23.1 µM |
| O=[N+]([O-])c1ccccc1/C=N/n1c(-c2cccnc2)n[nH]c1=S | 28 µM |
| c1nc(NC2CCCCCC2)c2[nH]cnc2n1 | 29.8 µM |
| CC(=O)C(Sc1ccc2nnc(-c3ccc(C)cc3)n2n1)C(C)=O | > 30 µM (inactive) |
| COc1ccc(OC)c(N=c2oc3c(OC)cccc3cc2C(=O)NCc2ccco2)c1 | > 30 µM (inactive) |
| CCCC1=C(C(=O)OCC)C(c2ccc(N(C)C)cc2)n2ncnc2N1 (stereo not given) | > 30 µM (inactive) |
| CC(C)(C)C(=O)/C=c1\[nH]c(=O)/c(=C\c2ccc(F)cc2)s1 | 11.9 µM |
| Cc1onc(-c2ccccc2Cl)c1C(=O)Nc1cccc(-c2cn3cccnc3n2)c1 | > 30 µM (inactive) |
| COc1ccc(-c2cc(=O)oc3cc(O)ccc23)cc1 | 19.5 µM |
| C/C(=N\NC(=O)c1nnn(-c2nonc2N)c1-c1cccs1)c1ccncc1 | 1.02 µM |
| COc1cc2ncc(S(=O)(=O)c3ccccc3)c(N3CCCC(C)C3)c2cc1OC (stereo not given) | > 30 µM (inactive) |
| c1ccc(N2CCN(c3cnc4ccccc4n3)CC2)cc1 | > 30 µM (inactive) |

| SMILES | AC50 |
| --- | --- |
| O=Nc1c(-c2c(O)[nH]c3cc(Br)ccc23)[nH]c2ccccc12 | < 0.0135 µM |
| O=C(Nc1ccsc1C(=O)O)c1ccccc1 | > 30 µM (inactive) |
| Fc1cccc(/C=N/Nc2nccnc2Cl)c1 | > 30 µM (inactive) |
| CSc1nc2sc3c(c2c(=O)[nH]1)CCC(C)C3 (stereo not given) | > 30 µM (inactive) |
| Cc1ccc(N(CC(O)CN2CCCCC2)S(=O)(=O)c2ccc(C)cc2)cc1 (stereo not given) | > 30 µM (inactive) |
| Cc1cccc(C(=O)Nc2nccs2)c1[N+](=O)[O-] | > 30 µM (inactive) |
| Nc1nonc1-n1nnc(C(=O)N/N=C/c2ccco2)c1CSc1ccccc1 | > 30 µM (inactive) |
| N#C/C(=N\Nc1ccc(Cl)cc1)C(N)=S | > 30 µM (inactive) |
| CCC(CC)c1nnc(NC(=O)CCN2C(=O)c3ccccc3C2=O)s1 | > 30 µM (inactive) |
| CCCCc1ccc(NC(=O)N[C@H](C(=O)O)C(C)CC)cc1 (stereo not given in full) | > 30 µM (inactive) |
| Cc1cc(O)c(Oc2cc(C)cc(O)c2O)c(O)c1 | > 30 µM (inactive) |
| O=C(NCc1ccc(C(=O)N2CCC3(CC2)OCCO3)cc1)c1ccc2c(c1)OCO2 | > 30 µM (inactive) |
| Cc1cc(C(=O)CN(Cc2ccc(F)cc2)S(=O)(=O)c2ccc3c(c2)OCCO3)c(C)n1C | > 30 µM (inactive) |
| O=[N+]([O-])c1ccc(NC2CCCC2)cc1 | > 30 µM (inactive) |
| CC(C)(C)OC(=O)N1CCN(C(=O)c2[nH]cnc2C(=O)Nc2ccon2)CC1 | > 30 µM (inactive) |
| CCOc1cc(/C=C2\SC(N3CCCC(C)C3)=NC2=O)ccc1O (stereo not given) | 8.87 µM |
| C/C(=N\NC(=O)c1nnn(-c2nonc2N)c1-c1cccs1)c1cccc(O)c1 | 1.42 µM |
| COC(=O)c1c(NC(=O)CN2C(=O)NC3(CCc4ccccc4C3)C2=O)sc2c1CCCCC2 (stereo not given) | > 30 µM (inactive) |
| CC1(C)CC(=O)C(C(C2=C(O)CC(C)(C)CC2=O)c2ccco2)C(=O)C1 (stereo not given) | > 30 µM (inactive) |
| O=C(Nc1cccc(C(=O)NC2CCCCC2)c1)c1ccccc1 | > 30 µM (inactive) |
| Cc1cccc(NC(=O)c2sc3nc4c(c(-c5cccs5)c3c2N)CN(C)CC4)c1 | > 30 µM (inactive) |
| O=C(CNC(=S)N(Cc1ccccc1)Cc1cccnc1)NC1CCCCC1 | > 30 µM (inactive) |
| Cc1ccnc(NC(=O)CCC(=O)N(CC(=O)NCc2ccc(F)cc2)CC2CCCO2)c1 (stereo not given) | 27.9 µM |
| CCNc1c(C(=O)O)ccc2c1C(=O)c1ccccc1C2=O | > 30 µM (inactive) |
| Cc1ccsc1C(=O)OCC(=O)N1C(C)CCCC1C (stereo not given) | > 30 µM (inactive) |
| CCOC(=O)c1cc[nH]c1C | > 30 µM (inactive) |
| Cc1ccc(Sc2ccc(NC(=O)CCl)cc2)c(C)c1 | > 30 µM (inactive) |

| SMILES | AC50 |
| --- | --- |
| Cc1cccc(NC(=O)CSc2nc3[nH]ncc3c(=O)n2-c2ccccc2)c1 | > 30 µM (inactive) |
| C=CCn1cnc2c(c1=O)c1nc3ccccc3nc1n2/N=C/c1cc(OC)c(OC)c(OC)c1 | > 30 µM (inactive) |
| CCCCOC(=O)CNc1n[nH]c(=S)[nH]c1=O | > 30 µM (inactive) |
| Cc1cccc(/C(N)=N/OC(=O)c2ccc3c(c2)OCO3)c1 | 24.7 µM |
| O=C(CNC(=O)c1ccccc1)N/N=C/C=C/c1ccccc1 | > 30 µM (inactive) |
| C/C(=C(/CCO)SSCC1CCCO1)N(C=O)Cc1cnc(C)nc1N (stereo not given) | > 30 µM (inactive) |
| CCOC(=O)N1CCC(N2CCN(S(=O)(=O)c3ccc([N+](=O)[O-])cc3)CC2)CC1 | > 30 µM (inactive) |
| C=CCOc1ccc(/C=N/n2cncn2)cc1OC | > 30 µM (inactive) |
| CCOC(=O)c1nnn(-c2nonc2N)c1COc1c(C=O)cccc1OC | 4.32 µM |
| Nc1nc(-c2ccccc2)nc(-c2ccccc2O)n1 | 21.4 µM |
| CC(=O)c1cccc(NC(=S)NC(=O)CC(C)C)c1 | > 30 µM (inactive) |
| O=C(COc1ccccc1F)NC1CC1 | > 30 µM (inactive) |
| O=C(Nc1ccc(C(=O)NC2CCCCC2)cc1)c1cccnc1 | > 30 µM (inactive) |
| COCCCNc1nc2nonc2nc1NCCSC | > 30 µM (inactive) |
| CC1(C)Oc2ccc3ccc(=O)oc3c2-c2cn[nH]c21 | 7.97 µM |
| CC(C)N=C(NC#N)SCc1ccc(F)cc1 | > 30 µM (inactive) |
| Cc1ccc(C(=O)N2NC(c3ccc(F)cc3)C3C(=O)N(c4ccc(C)cc4)C(=O)C32)cc1 (stereo not given) | > 30 µM (inactive) |
| Cc1cccc(NC(=O)CSCC(=O)OCc2ccccn2)c1 | > 30 µM (inactive) |
| Cc1ccc(C(=O)Nc2cccc(C(=O)NC3CCCCC3)c2)cc1 | > 30 µM (inactive) |
| Cc1c(C(=O)OC(C)C)[nH]c2c1C(=O)CCC2 | > 30 µM (inactive) |
| COc1cc(/C=C2\Oc3ccc(C#Cc4ccc(O)cc4)cc3C2=O)cc(OC)c1 | > 30 µM (inactive) |
| Cc1nc2ccc(-c3ccccc3)cc2o1 | > 30 µM (inactive) |
| CCN(CC)Cc1c(C(=O)N/N=C(\C)c2ccncc2)nnn1-c1nonc1N | 9.96 µM |
| O=C(NCc1c(F)cccc1F)c1cc(COc2c(F)cccc2F)on1 | > 30 µM (inactive) |
| CC1(C)Cc2cccc(C(=O)Nc3ccc(Cl)cc3)c2O1 | > 30 µM (inactive) |
| Nc1nc(N)nc(-c2cc(F)ccc2O)n1 | 18.9 µM |
| CC(C)OCCCNc1nc2c([nH]1)c(=O)n(C)c(=O)n2C | > 30 µM (inactive) |

| SMILES | AC50 |
| --- | --- |
| C#CCOCCOCCOCCNc1nc(N2CCN(C(=O)[C@H](CCC(=O)O)n3cc([C@@H](N)CCCCN)nn3)CC2)nc(N2CCN(C(=O)[C@H](CCC(=O)O)n3cc([C@@H](N)CCCCN)nn3)CC2)n1 | > 30 µM (inactive) |
| CC(=O)Nc1ncc(Cc2cccc(Cl)c2Cl)s1 | > 30 µM (inactive) |
| COc1ccccc1C(=O)NNC(=O)c1cccc(F)c1 | > 30 µM (inactive) |
| O=C(O)c1cc(NC(=O)c2ccccc2[N+](=O)[O-])ccc1O | > 30 µM (inactive) |
| CC(C)c1c(C(=O)N/N=C/c2ccncc2)nnn1-c1nonc1N | > 30 µM (inactive) |
| COc1ccccc1/C=C1\S/C(=N/NC(=O)c2cccc(Br)c2)NC1=O | > 30 µM (inactive) |
| CCOC(=O)C1=C(CC)OC(N)=C(C#N)C1c1ccc(NC(C)=O)cc1 (stereo not given) | > 30 µM (inactive) |
| Cc1ccnc(NC(=O)CCC(=O)N(CC(=O)NCc2ccccc2)Cc2ccccc2)c1 | 15.1 µM |
| Cc1cccc(C)c1OC(=O)C(c1ccccc1)c1ccccc1 | > 30 µM (inactive) |
| O=C(CSc1cccc2cccnc12)N/N=C/c1ccc(O)cc1 | > 30 µM (inactive) |
| N#C/C(C(N)=O)=C1/CCc2ccccc2N1 | 12.5 µM |
| CCOC(=O)c1c(NC(=O)C2CC2)sc(C)c1CC | > 30 µM (inactive) |
| Brc1ccccc1/C=N/Nc1ccc2ccccc2n1 | > 30 µM (inactive) |
| CC1(C)CC(=O)C(C(c2ccncc2)C2C(=O)CC(C)(C)CC2=O)C(=O)C1 | > 30 µM (inactive) |
| CCOC(=O)c1[nH]c2c(c1-c1ccccc1)C(=O)CC(c1ccc(OCC)cc1)C2 (stereo not given) | > 30 µM (inactive) |
| NC(=O)c1cccc(S(=O)(=O)N2CC(c3ccccc3)CC2=O)c1 (stereo not given) | > 30 µM (inactive) |
| CCCCCCCCOC(=O)C1=C(C)Nc2nnnn2C1c1cccs1 (stereo not given) | > 30 µM (inactive) |
| COc1cccc(/C=N/n2nnnc2N)c1OCC#N | > 30 µM (inactive) |
| CCC(Sc1ccc2nnc(-c3cccnc3)n2n1)C(=O)O (stereo not given) | > 30 µM (inactive) |
| Cc1ccc2nc(-c3ccncc3)[nH]c2c1 | > 30 µM (inactive) |
| COc1ccc(N2CCOCC2)c(NC(=O)c2ccc(Br)o2)c1 | 8.71 µM |
| CCOC(=O)c1cc(C)sc1NC(=O)C1CCC1 | > 30 µM (inactive) |
| CCSc1ccccc1C(=O)Nc1cccnc1 | > 30 µM (inactive) |
| Cc1cn(C2OC(CC(=O)Oc3ccccc3)C(O)C2O)c(=O)[nH]c1=O (stereo not given) | 19.1 µM |
